From US10435405B2, “Pyrazolopyridine compounds and uses thereof” (Incyte Corporation, priority 2016, dated 2019)

Biological target: HPK1 (Homo sapiens (Human), UniProt Q92918)
Assay: HPK1 Kinase Binding Assay
How it was run: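 Active HPK1 (added as 4 nM solution) was combined with compound (3-fold, 11-point series) and tracer 222 (18 nM) plus Eu-anti-GST antibody (4 nM) in 50 mM HEPES pH 7.5 with MgCl2 and DTT. After 1 h at 25 °C plates were read. Ki values were derived.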

HPK1, sequence (Q92918 1-346): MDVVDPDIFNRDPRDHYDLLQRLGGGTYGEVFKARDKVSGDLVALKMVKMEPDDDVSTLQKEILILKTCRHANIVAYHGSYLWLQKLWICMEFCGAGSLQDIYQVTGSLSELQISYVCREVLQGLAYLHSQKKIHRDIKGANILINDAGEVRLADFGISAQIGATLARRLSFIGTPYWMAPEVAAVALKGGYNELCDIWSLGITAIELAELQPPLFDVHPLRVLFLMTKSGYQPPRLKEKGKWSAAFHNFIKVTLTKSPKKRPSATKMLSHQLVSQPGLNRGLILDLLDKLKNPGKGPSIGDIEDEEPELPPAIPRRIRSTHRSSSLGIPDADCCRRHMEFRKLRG

SMILES | Ki [nM]
CN1CCN(c2ccc(-c3n[nH]c4cnc(-c5c(F)cc6c(c5F)CCCC6N)cc34)cn2)CC1 (stereo not shown) [Example 203, 5,7-Difluoro-6-(3-(6-(4-methylpiperazin-1-yl)pyridin-3-yl)-1H-pyrazolo[3,4-c]pyridin-5-yl)-1,2,3,4-tetrahydronaphthalen-1-amine] | ≤ 100
CNC(=O)c1ccc(-c2n[nH]c3cnc(-c4c(F)cc5c(c4F)C(NC)CC5)cc23)cc1 (stereo not shown) [Example 204, 4-(5-(4,6-Difluoro-3-(methylamino)-2,3-dihydro-1H-inden-5-yl)-1H-pyrazolo[3,4-c]pyridin-3-yl)-N-methylbenzamide] | ≤ 100
CNC1CCc2cc(F)c(-c3cc4c(-c5ccc(N6CCN(C)CC6)cc5)n[nH]c4cn3)c(F)c21 (stereo not shown) [Example 205, 5,7-Difluoro-N-methyl-6-(3-(4-(4-methylpiperazin-1-yl)phenyl)-1H-pyrazolo[3,4-c]pyridin-5-yl)-2,3-dihydro-1H-inden-1-amine] | ≤ 100
COc1c(-c2cc3c(-c4ccc(N5CCN(C)CC5)cc4)n[nH]c3cn2)c(F)cc2c1C(N)CC2 (stereo not shown) [Example 206, 5-Fluoro-7-methoxy-6-(3-(4-(4-methylpiperazin-1-yl)phenyl)-1H-pyrazolo[3,4-c]pyridin-5-yl)-2,3-dihydro-1H-inden-1-amine] | ≤ 100
COc1c(-c2cc3c(-c4cnn(C)c4)n[nH]c3cn2)c(F)cc2c1C(N)CC2 (stereo not shown) [Example 207, 5-Fluoro-7-methoxy-6-(3-(1-methyl-1H-pyrazol-4-yl)-1H-pyrazolo[3,4-c]pyridin-5-yl)-2,3-dihydro-1H-inden-1-amine] | ≤ 100
CNC(=O)c1ccc(-c2n[nH]c3cnc(-c4c(F)ccc5c4CCCC5NC)cc23)cn1 (stereo not shown) [Example 208, 5-(5-(2-Fluoro-5-(methylamino)-5,6,7,8-tetrahydronaphthalen-1-yl)-1H-pyrazolo[3,4-c]pyridin-3-yl)-N-methylpicolinamide] | ≤ 100
CNC1CCCc2c1ccc(F)c2-c1cc2c(-c3ccc(N4CCN(C)CC4)cc3)n[nH]c2cn1 (stereo not shown) [Example 209, 6-Fluoro-N-methyl-5-(3-(4-(4-methylpiperazin-1-yl)phenyl)-1H-pyrazolo[3,4-c]pyridin-5-yl)-1,2,3,4-tetrahydronaphthalen-1-amine] | ≤ 100
Cn1cc(-c2n[nH]c3cnc(-c4c(F)ccc5c4CCCC5N)cc23)cn1 (stereo not shown) [Example 210, 6-Fluoro-5-(3-(1-methyl-1H-pyrazol-4-yl)-1H-pyrazolo[3,4-c]pyridin-5-yl)-1,2,3,4-tetrahydronaphthalen-1-amine] | ≤ 100
CN1CCN(c2ncc(-c3n[nH]c4cnc(-c5c(F)cc(CC#N)cc5F)cc34)cn2)CC1 [Example 211, 2-(3,5-Difluoro-4-(3-(2-(4-methylpiperazin-1-yl)pyrimidin-5-yl)-1H-pyrazolo[3,4-c]pyridin-5-yl)phenyl)acetonitrile] | ≤ 100
Cn1cc(-c2n[nH]c3cnc(-c4c(F)cc5c(c4F)C(O)CC5)cc23)cn1 (stereo not shown) [Example 212, 5,7-Difluoro-6-(3-(1-methyl-1H-pyrazol-4-yl)-1H-pyrazolo[3,4-c]pyridin-5-yl)-2,3-dihydro-1H-inden-1-ol] | ≤ 100
CN1CCN(c2ccc(-c3n[nH]c4cnc(-c5c(F)cc6c(c5F)C(O)CC6)cc34)cn2)CC1 (stereo not shown) [Example 213, 5,7-Difluoro-6-(3-(6-(4-methylpiperazin-1-yl)pyridin-3-yl)-1H-pyrazolo[3,4-c]pyridin-5-yl)-2,3-dihydro-1H-inden-1-ol] | ≤ 100
CNC1CCc2cc(F)c(-c3ncc4[nH]nc(-c5cnn(C)c5)c4c3OC)c(F)c2C1 (stereo not shown) [Example 214, 6,8-Difluoro-7-(4-methoxy-3-(1-methyl-1H-pyrazol-4-yl)-1H-pyrazolo[3,4-c]pyridin-5-yl)-N-methyl-1,2,3,4-tetrahydronaphthalen-2-amine] | ≤ 100
CNCc1cc(F)c(-c2ncc3[nH]nc(-c4cnn(C)c4)c3c2OC)c(F)c1 [Example 215, 1-(3,5-Difluoro-4-(4-methoxy-3-(1-methyl-1H-pyrazol-4-yl)-1H-pyrazolo[3,4-c]pyridin-5-yl)phenyl)-N-methylmethanamine] | ≤ 100
